Publication PMC4006925, “Squalene Synthase As a Target for Chagas Disease Therapeutics” (PLoS Pathogens, 2014)

Assays:
T. cruzi = assay: Rescue from T. cruzi cell growth inhibition by farnesol or geranylgeraniol; format: cell-based, Trypanosoma cruzi
T. cruzi epimastigotes [1] = assay: Sterol composition of T. cruzi epimastigotes, GC-MS; format: cell-based, Trypanosoma cruzi; details: 4 µM compound
Experimental: . Cells from cultures (96 h incubation) were washed with Buffer A with glucose (116 mM NaCl, 5.4 mM KCl, 0.8 mM MgSO4, 5.5 mM D-glucose, and 50 mM HEPES at pH 7.0) then pelleted and chloroform/methanol (2∶1 v/v) added (∼30 mL of solvent per gram of wet cells) followed by vigorous stirring and overnight incubation at 4°C. The extract was then filtered using Whatman #2 paper to eliminate insoluble material, and the filtrate (a single phase) dried under nitrogen. The extract was then re-extracted using chloroform/methanol 9/1 v/v, dried under nitrogen, dissolved in 1 mL of pure chloroform and re-dried under nitrogen gas. The extracted lipids were saponified with 5 mL of ethanolic-potassium hydroxide (5 g KOH, 7 mL water, 14 mL ethanol) for 1 hour at 80°C. After cooling, 2.5 mL of water and 1.5 mL hexane were added and the phases allowed to separate. […] Samples were analyzed on a 30 m DB5 column with 0.32 mm I.D. and 0.25 µm film thickness (Agilent Inc, Palo Alto, CA, USA) with an injection port temperature of 300°C, the interface was set to 300°C, the ion source adjusted to 230°C, MS Quadrupole 150°C. […] The spectra of all chromatogram peaks were evaluated by using the HP Chemstation (Agilent, Palo Alto, CA, USA) program. Identifications and quantifications were performed using mass spectra obtained from authentic standards and with NIST08 and W8N08 libraries (John Wiley & Sons, Inc., USA).

Vero cells = assay: Vero (host) cell proliferation, alamarBlue; format: cell-based; details: Chlorocebus sabaeus, Vero, read-out: IC50 Vero cells (host cell growth)
Experimental: Vero cells (1.7×10^4 cells/well) were seeded in 96 well plates (black, clear bottom from Greiner Bio-One Cat#655090) in 100 µL RPMI media (Sigma Cat# R-4130) with 10% FBS. Plates were tested as described by Recher et al.

T. cruzi epimastigotes [2] = assay: UQ9 biosynthesis in epimastigotes, LC-MS; format: cell-based, Trypanosoma cruzi
Experimental: For ubiquinone extraction, epimastigotes (1 g wet weight) were washed twice with buffer A with glucose (116 mM NaCl, 5.4 mM KCl, 0.8 mM MgSO4, 5.5 mM D-glucose, and 50 mM HEPES at pH 7.0). To break the cells, the pellets were frozen in a dry ice-100% ethanol bath (for 7 min) and thawed at 37°C (for 3 min) for a total of 5 times. One volume of water and three volumes of 1-propanol were added to the pellet. The samples were vortexed for 30 sec at room temperature and allowed to stand for one minute. Two volumes of n-hexane were added, the mixture vortexed for 30 sec at room temperature, then centrifuged at 12,000× g for 5 min. The upper phase, containing ubiquinone, was collected into a glass tube, and dried under nitrogen gas, then analyzed using LC-MS.
LC/MS was performed using an Agilent LC/MSD Trap XCT Plus system (Agilent Technologies, Santa Clara, CA) with an 1100 series HPLC system including a degasser, an auto-sampler, a binary pump, and a multiple-wavelength detector. The LC separation used a Phenomenex Gemini 3u C18 110A column (2 mm×100 mm) (Torrence, CA) with mobile phase A (0.1% formic acid in water) and mobile phase B (0.1% formic acid in acetonitrile). The flow-rate was 0.25 mL/min. The linear gradient was as follows: 0–1 min, 100% A; 7–50 min, 0% A; 51–56 min, 100% A. The auto-sampler was set at 5°C and the injection volume was 15 µL. UV signals were recorded at 275 nm. […]

With `CCCCCCCCCC[n+]1ccn(CC(P(=O)([O-])O)P(=O)(O)O)c1` (stereo not drawn) [BPH-1218] the “rescue afforded by farnesol” value (T. cruzi) was “no “rescue””, the rescue by geranylgeraniol (T. cruzi; geranylgeraniol at 40 µM) was ~20% and the “endogenous ergosterol and the three major ergosterol related sterols, % of total sterols” value (T. cruzi epimastigotes [1]; without compound 36%) was 15%. For the same compound, the “content of exogeneously-acquired cholesterol, % of total sterols” value (T. cruzi epimastigotes [1]; without compound 51%) was 71%, the IC50 (Vero cells) was ~1000 µM and the “decrease in UQ9 biosynthesis” value (T. cruzi epimastigotes [2]) was ~40%.
